In patent US20240374587A1, “MEDICINE FOR PREVENTION AND TREATMENT OF DISEASES LINKED TO ANTI-OBESITY ACTIVITY” (Shionogi & Co., Ltd., priority 2021, published 2024):
pIC50: −log10 of the molar value.

target: human MGAT2 (Homo sapiens (Human), UniProt Q3SYC2); experiment: Measurement of human MGAT2 inhibitory activity; assay type: biochemical; conditions: concentration exhibiting 50% enzyme inhibition
Protocol: Solutions of the compounds of the present invention in DMSO were each aliquoted into 0.2·μL portions in a 384-well polystyrene microplate produced by Corning Incorporated, and 5 μL of an enzyme solution prepared with an assay buffer (100 mmol/L phosphate buffer (pH 7.4) containing 2 mmol/L DTT) and 5 μL of a substrate solution (100 mmol/L phosphate buffer (pH 7.4), 30 μmol/L 2-Oleoylglycerol, 10 μmol/L Oleoyl-CoA) were added thereto, and the resultant was stirred and centrifuged, and incubated in a moist chamber at room temperature for 1 hour. After enzymatic reaction, 50 μL of a quenching solution (containing 0.2 μmol/L Diolein-d5, 0.4% formic acid, and 50% isopropanol) containing Internal Standard (IS) was added to terminate the reaction, and the resultant was sealed in a plate produced by Shimadzu GLC Ltd., and then stirred and centrifuged, and measurement was performed by using an electrospray ionization method with a RapidFire360 and Agilent 6550 Q-TOF mass spectrometer. Diolein as a reaction product (P) of 2-Oleoylglycerol as the substrate and an ammonium adduct ion of the IS were detected, and the peak intensity ratio, P/IS, was calculated from the peak heights to evaluate the inhibitory activity. Inhibitory activities with/without addition of enzyme were defined as Control (+)/Control (−), respectively, and the respective % inhibitions were defined as 0% inhibition and 100% inhibition. The inhibitory activity was calculated from the formula below with TIBCO Spotfire (produced by TIBCO Software Inc.) with the peak intensity ratio, P/IS, at the time of addition of the compound of the present invention being as Sample: […]

Chain of human MGAT2 (Q3SYC2 whole entry): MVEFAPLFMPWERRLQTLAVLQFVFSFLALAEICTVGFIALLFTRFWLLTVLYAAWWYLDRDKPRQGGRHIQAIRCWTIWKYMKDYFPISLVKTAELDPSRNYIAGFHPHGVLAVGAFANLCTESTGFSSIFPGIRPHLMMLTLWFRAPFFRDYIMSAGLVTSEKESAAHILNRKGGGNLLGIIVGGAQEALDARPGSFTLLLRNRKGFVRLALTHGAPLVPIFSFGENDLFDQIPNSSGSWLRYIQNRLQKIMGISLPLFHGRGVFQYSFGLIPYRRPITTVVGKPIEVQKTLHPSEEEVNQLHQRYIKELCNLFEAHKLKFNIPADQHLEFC

SMILES | pIC50
CS(=O)(=O)CC(=O)Nc1c(CCC2CC2)nn2c1C(=O)N[C@@]1(CCc3cc(OCC(F)(F)F)ccc31)C2 [I′-046] | 8.93
CS(=O)(=O)CC(=O)Nc1c(CCC(F)(F)F)nn2c1C(=O)N[C@@]1(CCc3cc(OCC(F)(F)F)ccc31)C2 [I′-058] | 8.01
CS(=O)(=O)CC(=O)Nc1c(-c2ccc(F)cc2)nn2c1C(=O)N[C@@]1(CCOc3cc(OCC(F)(F)F)ccc31)C2 [I′-066] | 9.07
CS(=O)(=O)CC(=O)Nc1c(-c2ccc(F)cc2)nn2c1C(=O)N[C@]1(CCc3cc(OCC(F)(F)F)ccc31)C2 [I′-079] | 8.95
CCS(=O)(=O)CC(=O)Nc1c(-c2ccc(F)cn2)nn2c1C(=O)N[C@@]1(CCc3cc(F)cc(F)c31)C2 [I′-123] | 8.07
Cc1ccc(-c2nn3c(c2NC(=O)CS(C)(=O)=O)C(=O)N[C@@]2(CCOc4cc(F)cc(F)c42)C3)nc1 [I′-124] | 8.19
CS(=O)(=O)CC(=O)Nc1c(-c2ccc(F)c(F)c2)nn2c1C(=O)N[C@@]1(CCOc3cc(F)cc(F)c31)C2 [I′-126] | 8.80
CS(=O)(=O)CC(=O)Nc1c(-c2ccc(F)c(F)c2)nn2c1C(=O)N[C@@]1(CCc3cc(F)cc(F)c31)C2 [I′-130] | 8.35
CCOc1ccc2c(c1)OCC[C@]21Cn2nc(-c3ccc(F)c(F)c3)c(NC(=O)CS(C)(=O)=O)c2C(=O)N1 [I′-133] | 8.86
CCS(=O)(=O)CC(=O)Nc1c(-c2ccc(C)cn2)nn2c1C(=O)N[C@@]1(CCOc3cc(F)cc(F)c31)C2 [I′-136] | 8.30
CS(=O)(=O)CC(=O)Nc1c(-c2ccc(Cl)cn2)nn2c1C(=O)N[C@@]1(CCOc3cc(F)cc(F)c31)C2 [I′-137] | 8.82
Cc1ccc(-c2nn3c(c2NC(=O)CS(C)(=O)=O)C(=O)N[C@@]2(CCc4cc(F)cc(F)c42)C3)nc1 [I′-139] | 7.80
CS(=O)(=O)CC(=O)Nc1c(-c2ccc(C3CC3)cn2)nn2c1C(=O)N[C@@]1(CCc3cc(F)cc(F)c31)C2 [I′-141] | 8.19
CS(=O)(=O)CC(=O)Nc1c(-c2ccc(Cl)cn2)nn2c1C(=O)N[C@@]1(CCc3cc(F)cc(F)c31)C2 [I′-142] | 8.54
CS(=O)(=O)CC(=O)Nc1c(-c2ccc(C3CC3)cn2)nn2c1C(=O)N[C@@]1(CCOc3cc(F)cc(F)c31)C2 [I′-143] | 8.46
CS(=O)(=O)CC(=O)Nc1c(-c2ccc(C(F)F)cc2)nn2c1C(=O)N[C@@]1(CCOc3cc(F)cc(F)c31)C2 [I′-145] | 8.54
CS(=O)(=O)CC(=O)Nc1c(-c2ccc(Cl)cn2)nn2c1C(=O)N[C@]1(CCc3cc(F)cc(F)c31)C2 [I′-147] | 8.46
CS(=O)(=O)CC(=O)Nc1c(-c2ccc(Cl)cn2)nn2c1C(=O)N[C@]1(CCOc3cc(F)cc(F)c31)C2 [I′-151] | 8.27
CS(=O)(=O)CC(=O)Nc1c(-c2ccc(C(F)F)cn2)nn2c1C(=O)N[C@@]1(CCOc3cc(F)cc(F)c31)C2 [I′-153] | 8.65

test system: C57BL/6j mice (DIO mice); experiment: Anti-obesity effect test in DIO mice (body weight, food consumption); assay type: in vivo; design: concentration or dose not given beside the values; conditions: 1st week of administration, liraglutide study
Protocol: The anti-obesity effect of the compound and/or agent according to the present invention was examined by using C57BL/6j mice (DIO mice) provided with a high-fat diet (TestDiet; 58Y1).
Five-week-old male C57BL/6j mice (CLEA Japan. Inc.) were purchased, and grown with feeding of a high-fat diet under 12-hour light-dark cycles for 4 weeks to produce DIO mice. A medium (0.5% HPMC and physiological saline) was administered once a day from 3 weeks before administration of the compound. Randomization was performed for grouping (n=9 to 10) on the basis of body weight and change in food consumption during the period of administration for conditioning. From Day 0 to Day 35, gavage of vehicle (0.5% HPMC and physiological saline) (hereinafter, Control group), gavage of Compound (A) according to the present invention (hereinafter, (A)-administration group), subcutaneous administration of GLP-1 formulation (liraglutide or semaglutide) as Compound (B) according to the present invention (hereinafter, (B)-administration group), or both (hereinafter, the combined administration group) were performed once a day. The GLP-1 formulation was formulated in an increasing dose, and liraglutide and semaglutide were administered at 4 to 20 μg/kg and:3 to 15 μg/kg, respectively, once a day. During the administration period, daily body weight measurement and food consumption measurement once a week were performed.

SMILES | Rate of decrease in food consumption relative to control group
CCCCCCCCCCCCCCCC(=O)N[C@@H](CCC(=O)NCCCC[C@H](NC(=O)[C@H](C)NC(=O)[C@H](C)NC(=O)[C@H](CCC(N)=O)NC(=O)CNC(=O)[C@H](CCC(=O)O)NC(=O)[C@H](CC(C)C)NC(=O)[C@H](Cc1ccc(O)cc1)NC(=O)[C@H](CO)NC(=O)[C@H](CO)NC(=O)[C@@H](NC(=O)[C@H](CC(=O)O)NC(=O)[C@H](CO)NC(=O)[C@@H](NC(=O)[C@H](Cc1ccccc1)NC(=O)[C@@H](NC(=O)CNC(=O)[C@H](CCC(=O)O)NC(=O)[C@H](C)NC(=O)[C@@H](N)Cc1cnc[nH]1)[C@@H](C)O)[C@@H](C)O)C(C)C)C(=O)N[C@@H](CCC(=O)O)C(=O)N[C@@H](Cc1ccccc1)C(=O)N[C@H](C(=O)N[C@@H](C)C(=O)N[C@@H](Cc1c[nH]c2ccccc12)C(=O)N[C@@H](CC(C)C)C(=O)N[C@H](C(=O)N[C@@H](CCCNC(=N)N)C(=O)NCC(=O)N[C@@H](CCCNC(=N)N)C(=O)NCC(=O)O)C(C)C)[C@@H](C)CC)C(=O)O [Liraglutide, liraglutide, reference compound] | 4.6%

same assay, conditions: 2nd week of administration, liraglutide study

SMILES | Rate of decrease in food consumption relative to control group
CCCCCCCCCCCCCCCC(=O)N[C@@H](CCC(=O)NCCCC[C@H](NC(=O)[C@H](C)NC(=O)[C@H](C)NC(=O)[C@H](CCC(N)=O)NC(=O)CNC(=O)[C@H](CCC(=O)O)NC(=O)[C@H](CC(C)C)NC(=O)[C@H](Cc1ccc(O)cc1)NC(=O)[C@H](CO)NC(=O)[C@H](CO)NC(=O)[C@@H](NC(=O)[C@H](CC(=O)O)NC(=O)[C@H](CO)NC(=O)[C@@H](NC(=O)[C@H](Cc1ccccc1)NC(=O)[C@@H](NC(=O)CNC(=O)[C@H](CCC(=O)O)NC(=O)[C@H](C)NC(=O)[C@@H](N)Cc1cnc[nH]1)[C@@H](C)O)[C@@H](C)O)C(C)C)C(=O)N[C@@H](CCC(=O)O)C(=O)N[C@@H](Cc1ccccc1)C(=O)N[C@H](C(=O)N[C@@H](C)C(=O)N[C@@H](Cc1c[nH]c2ccccc12)C(=O)N[C@@H](CC(C)C)C(=O)N[C@H](C(=O)N[C@@H](CCCNC(=N)N)C(=O)NCC(=O)N[C@@H](CCCNC(=N)N)C(=O)NCC(=O)O)C(C)C)[C@@H](C)CC)C(=O)O [Liraglutide, liraglutide, reference compound] | 9.4%

same assay, conditions: 3rd week of administration, liraglutide study

SMILES | Rate of decrease in food consumption relative to control group
CCCCCCCCCCCCCCCC(=O)N[C@@H](CCC(=O)NCCCC[C@H](NC(=O)[C@H](C)NC(=O)[C@H](C)NC(=O)[C@H](CCC(N)=O)NC(=O)CNC(=O)[C@H](CCC(=O)O)NC(=O)[C@H](CC(C)C)NC(=O)[C@H](Cc1ccc(O)cc1)NC(=O)[C@H](CO)NC(=O)[C@H](CO)NC(=O)[C@@H](NC(=O)[C@H](CC(=O)O)NC(=O)[C@H](CO)NC(=O)[C@@H](NC(=O)[C@H](Cc1ccccc1)NC(=O)[C@@H](NC(=O)CNC(=O)[C@H](CCC(=O)O)NC(=O)[C@H](C)NC(=O)[C@@H](N)Cc1cnc[nH]1)[C@@H](C)O)[C@@H](C)O)C(C)C)C(=O)N[C@@H](CCC(=O)O)C(=O)N[C@@H](Cc1ccccc1)C(=O)N[C@H](C(=O)N[C@@H](C)C(=O)N[C@@H](Cc1c[nH]c2ccccc12)C(=O)N[C@@H](CC(C)C)C(=O)N[C@H](C(=O)N[C@@H](CCCNC(=N)N)C(=O)NCC(=O)N[C@@H](CCCNC(=N)N)C(=O)NCC(=O)O)C(C)C)[C@@H](C)CC)C(=O)O [Liraglutide, liraglutide, reference compound] | 3.1%

same assay, conditions: 4th week of administration, liraglutide study

SMILES | Rate of decrease in food consumption relative to control group
CCCCCCCCCCCCCCCC(=O)N[C@@H](CCC(=O)NCCCC[C@H](NC(=O)[C@H](C)NC(=O)[C@H](C)NC(=O)[C@H](CCC(N)=O)NC(=O)CNC(=O)[C@H](CCC(=O)O)NC(=O)[C@H](CC(C)C)NC(=O)[C@H](Cc1ccc(O)cc1)NC(=O)[C@H](CO)NC(=O)[C@H](CO)NC(=O)[C@@H](NC(=O)[C@H](CC(=O)O)NC(=O)[C@H](CO)NC(=O)[C@@H](NC(=O)[C@H](Cc1ccccc1)NC(=O)[C@@H](NC(=O)CNC(=O)[C@H](CCC(=O)O)NC(=O)[C@H](C)NC(=O)[C@@H](N)Cc1cnc[nH]1)[C@@H](C)O)[C@@H](C)O)C(C)C)C(=O)N[C@@H](CCC(=O)O)C(=O)N[C@@H](Cc1ccccc1)C(=O)N[C@H](C(=O)N[C@@H](C)C(=O)N[C@@H](Cc1c[nH]c2ccccc12)C(=O)N[C@@H](CC(C)C)C(=O)N[C@H](C(=O)N[C@@H](CCCNC(=N)N)C(=O)NCC(=O)N[C@@H](CCCNC(=N)N)C(=O)NCC(=O)O)C(C)C)[C@@H](C)CC)C(=O)O [Liraglutide, liraglutide, reference compound] | 2.4%

same assay, conditions: 5th week of administration, liraglutide study

SMILES | Rate of decrease in food consumption relative to control group
CCCCCCCCCCCCCCCC(=O)N[C@@H](CCC(=O)NCCCC[C@H](NC(=O)[C@H](C)NC(=O)[C@H](C)NC(=O)[C@H](CCC(N)=O)NC(=O)CNC(=O)[C@H](CCC(=O)O)NC(=O)[C@H](CC(C)C)NC(=O)[C@H](Cc1ccc(O)cc1)NC(=O)[C@H](CO)NC(=O)[C@H](CO)NC(=O)[C@@H](NC(=O)[C@H](CC(=O)O)NC(=O)[C@H](CO)NC(=O)[C@@H](NC(=O)[C@H](Cc1ccccc1)NC(=O)[C@@H](NC(=O)CNC(=O)[C@H](CCC(=O)O)NC(=O)[C@H](C)NC(=O)[C@@H](N)Cc1cnc[nH]1)[C@@H](C)O)[C@@H](C)O)C(C)C)C(=O)N[C@@H](CCC(=O)O)C(=O)N[C@@H](Cc1ccccc1)C(=O)N[C@H](C(=O)N[C@@H](C)C(=O)N[C@@H](Cc1c[nH]c2ccccc12)C(=O)N[C@@H](CC(C)C)C(=O)N[C@H](C(=O)N[C@@H](CCCNC(=N)N)C(=O)NCC(=O)N[C@@H](CCCNC(=N)N)C(=O)NCC(=O)O)C(C)C)[C@@H](C)CC)C(=O)O [Liraglutide, liraglutide, reference compound] | 1.5%

same assay, conditions: at final administration (Day 0 to Day 35, once a day), liraglutide study (FIG. 1)

SMILES | Rate of decrease in body weight relative to control group
CCCCCCCCCCCCCCCC(=O)N[C@@H](CCC(=O)NCCCC[C@H](NC(=O)[C@H](C)NC(=O)[C@H](C)NC(=O)[C@H](CCC(N)=O)NC(=O)CNC(=O)[C@H](CCC(=O)O)NC(=O)[C@H](CC(C)C)NC(=O)[C@H](Cc1ccc(O)cc1)NC(=O)[C@H](CO)NC(=O)[C@H](CO)NC(=O)[C@@H](NC(=O)[C@H](CC(=O)O)NC(=O)[C@H](CO)NC(=O)[C@@H](NC(=O)[C@H](Cc1ccccc1)NC(=O)[C@@H](NC(=O)CNC(=O)[C@H](CCC(=O)O)NC(=O)[C@H](C)NC(=O)[C@@H](N)Cc1cnc[nH]1)[C@@H](C)O)[C@@H](C)O)C(C)C)C(=O)N[C@@H](CCC(=O)O)C(=O)N[C@@H](Cc1ccccc1)C(=O)N[C@H](C(=O)N[C@@H](C)C(=O)N[C@@H](Cc1c[nH]c2ccccc12)C(=O)N[C@@H](CC(C)C)C(=O)N[C@H](C(=O)N[C@@H](CCCNC(=N)N)C(=O)NCC(=O)N[C@@H](CCCNC(=N)N)C(=O)NCC(=O)O)C(C)C)[C@@H](C)CC)C(=O)O [Liraglutide, liraglutide, reference compound] | 4.2%
